# Measurements taken from ChEMBL document CHEMBL1136856, “Synthesis of 5-isoxazol-5-yl-2'-deoxyuridines exhibiting antiviral activity against HSV and several RNA viruses” (Bioorg Med Chem Lett, 2009).
# Activity calls are given as the source filed them. The calls are words filed in the database; no cut-off is given here.
# Test system: Human alphaherpesvirus 1
# Experiment: Antiviral activity against HSV1 assessed as inhibition of virus-induced cytopathicity
# Assay type: functional, organism-based
# Conditions: not given
row,SMILES,EC50 [µg/mL]
1,CC(=O)OC[C@H]1O[C@@H](n2cc(-c3cc(-c4ccc(C(C)C)cc4)no3)c(=O)[nH]c2=O)C[C@@H]1OC(C)=O,0.08
2,CC(C)c1ccc(-c2cc(-c3cn([C@H]4C[C@H](O)[C@@H](CO)O4)c(=O)[nH]c3=O)on2)cc1,0.09
3,Nc1nc2c(ncn2COCCO)c(=O)[nH]1 [ACYCLOVIR],0.18
4,CC(=O)OC[C@H]1O[C@@H](n2cc(-c3cc(-c4ccc(C(C)(C)C)cc4)no3)c(=O)[nH]c2=O)C[C@@H]1OC(C)=O,> 0.06
5,Nc1ccn([C@@H]2O[C@H](CO)[C@@H](O)[C@@H]2O)c(=O)n1 [CYTARABINE],0.2

# Test system: Human alphaherpesvirus 2
# Experiment: Antiviral activity against HSV2 assessed as inhibition of virus-induced cytopathicity
# Assay type: functional, organism-based
# Conditions: not given
row,SMILES,EC50 [µg/mL]
1,CC(=O)OC[C@H]1O[C@@H](n2cc(-c3cc(-c4ccc(C(C)C)cc4)no3)c(=O)[nH]c2=O)C[C@@H]1OC(C)=O,0.07
2,CC(C)c1ccc(-c2cc(-c3cn([C@H]4C[C@H](O)[C@@H](CO)O4)c(=O)[nH]c3=O)on2)cc1,0.09
3,Nc1nc2c(ncn2COCCO)c(=O)[nH]1 [ACYCLOVIR],0.36
4,CC(=O)OC[C@H]1O[C@@H](n2cc(-c3cc(-c4ccc(C(C)(C)C)cc4)no3)c(=O)[nH]c2=O)C[C@@H]1OC(C)=O,0.03
5,Nc1ccn([C@@H]2O[C@H](CO)[C@@H](O)[C@@H]2O)c(=O)n1 [CYTARABINE],0.52

# Test system: Encephalomyocarditis virus
# Experiment: Antiviral activity against EMCV assessed as inhibition of virus-induced cytopathicity
# Assay type: functional, organism-based
# Conditions: Cardiovirus A
row,SMILES,EC50 [µg/mL]
1,NC(=O)c1ncn([C@@H]2O[C@H](CO)[C@@H](O)[C@H]2O)n1 [RIBAVIRIN],0.02
2,CC(=O)OC[C@H]1O[C@@H](n2cc(-c3cc(-c4ccc(C(C)C)cc4)no3)c(=O)[nH]c2=O)C[C@@H]1OC(C)=O,0.01
3,CC(C)c1ccc(-c2cc(-c3cn([C@H]4C[C@H](O)[C@@H](CO)O4)c(=O)[nH]c3=O)on2)cc1,0.02
4,CC(=O)OC[C@H]1O[C@@H](n2cc(-c3cc(-c4ccc(C(C)(C)C)cc4)no3)c(=O)[nH]c2=O)C[C@@H]1OC(C)=O,0.01

# Test system: Coxsackievirus B3
# Experiment: Antiviral activity against Coxsackievirus B3 assessed as inhibition of virus-induced cytopathicity
# Assay type: functional, organism-based
# Conditions: Enterovirus B
row,SMILES,EC50 [µg/mL]
1,CC(=O)OC[C@H]1O[C@@H](n2cc(-c3cc(-c4ccc(C(C)C)cc4)no3)c(=O)[nH]c2=O)C[C@@H]1OC(C)=O,0.01
2,CC(C)c1ccc(-c2cc(-c3cn([C@H]4C[C@H](O)[C@@H](CO)O4)c(=O)[nH]c3=O)on2)cc1,0.03
3,CC(=O)OC[C@H]1O[C@@H](n2cc(-c3cc(-c4ccc(C(C)(C)C)cc4)no3)c(=O)[nH]c2=O)C[C@@H]1OC(C)=O,0.01

# Test system: Vesicular stomatitis virus
# Experiment: Antiviral activity against VSV assessed as inhibition of virus-induced cytopathicity
# Assay type: functional, organism-based
# Conditions: not given
row,SMILES,EC50 [µg/mL]
1,CC(=O)OC[C@H]1O[C@@H](n2cc(-c3cc(-c4ccc(C(C)C)cc4)no3)c(=O)[nH]c2=O)C[C@@H]1OC(C)=O,0.03
2,CC(C)c1ccc(-c2cc(-c3cn([C@H]4C[C@H](O)[C@@H](CO)O4)c(=O)[nH]c3=O)on2)cc1,> 0.07
3,CC(=O)OC[C@H]1O[C@@H](n2cc(-c3cc(-c4ccc(C(C)(C)C)cc4)no3)c(=O)[nH]c2=O)C[C@@H]1OC(C)=O,0.03

# Test system: Human immunodeficiency virus
# Experiment: Antiviral activity against HIV assessed as inhibition of virus-induced cytopathicity
# Assay type: functional, organism-based
# Conditions: not given
row,SMILES,Activity
1,CC(=O)OC[C@H]1O[C@@H](n2cc(-c3cc(-c4ccc(C(C)C)cc4)no3)c(=O)[nH]c2=O)C[C@@H]1OC(C)=O,inactive
2,CC(C)c1ccc(-c2cc(-c3cn([C@H]4C[C@H](O)[C@@H](CO)O4)c(=O)[nH]c3=O)on2)cc1,inactive
3,CC(=O)OC[C@H]1O[C@@H](n2cc(-c3cc(-c4ccc(C(C)(C)C)cc4)no3)c(=O)[nH]c2=O)C[C@@H]1OC(C)=O,inactive

# Test system: Influenza A virus
# Experiment: Antiviral activity against influenza A virus Taiwan assessed as inhibition of virus-induced cytopathicity
# Assay type: functional, organism-based
# Conditions: not given
row,SMILES,Activity
1,CC(=O)OC[C@H]1O[C@@H](n2cc(-c3cc(-c4ccc(C(C)C)cc4)no3)c(=O)[nH]c2=O)C[C@@H]1OC(C)=O,inactive
2,CC(C)c1ccc(-c2cc(-c3cn([C@H]4C[C@H](O)[C@@H](CO)O4)c(=O)[nH]c3=O)on2)cc1,inactive
3,CC(=O)OC[C@H]1O[C@@H](n2cc(-c3cc(-c4ccc(C(C)(C)C)cc4)no3)c(=O)[nH]c2=O)C[C@@H]1OC(C)=O,inactive

# Test system: Coronaviridae
# Experiment: Antiviral activity against Coronavirus assessed as inhibition of virus-induced cytopathicity
# Assay type: functional, organism-based
# Conditions: not given
row,SMILES,Activity
1,CC(=O)OC[C@H]1O[C@@H](n2cc(-c3cc(-c4ccc(C(C)C)cc4)no3)c(=O)[nH]c2=O)C[C@@H]1OC(C)=O,inactive
2,CC(C)c1ccc(-c2cc(-c3cn([C@H]4C[C@H](O)[C@@H](CO)O4)c(=O)[nH]c3=O)on2)cc1,inactive
3,CC(=O)OC[C@H]1O[C@@H](n2cc(-c3cc(-c4ccc(C(C)(C)C)cc4)no3)c(=O)[nH]c2=O)C[C@@H]1OC(C)=O,inactive

# Test system: Influenza A virus
# Experiment: Antiviral activity against influenza A virus Seoul assessed as inhibition of virus-induced cytopathicity
# Assay type: functional, organism-based
# Conditions: not given
row,SMILES,Activity
1,CC(=O)OC[C@H]1O[C@@H](n2cc(-c3cc(-c4ccc(C(C)C)cc4)no3)c(=O)[nH]c2=O)C[C@@H]1OC(C)=O,inactive
2,CC(C)c1ccc(-c2cc(-c3cn([C@H]4C[C@H](O)[C@@H](CO)O4)c(=O)[nH]c3=O)on2)cc1,inactive
3,CC(=O)OC[C@H]1O[C@@H](n2cc(-c3cc(-c4ccc(C(C)(C)C)cc4)no3)c(=O)[nH]c2=O)C[C@@H]1OC(C)=O,inactive

# Test system: Influenza A virus
# Experiment: Antiviral activity against influenza A virus Panama assessed as inhibition of virus-induced cytopathicity
# Assay type: functional, organism-based
# Conditions: not given
row,SMILES,Activity
1,CC(=O)OC[C@H]1O[C@@H](n2cc(-c3cc(-c4ccc(C(C)C)cc4)no3)c(=O)[nH]c2=O)C[C@@H]1OC(C)=O,inactive
2,CC(C)c1ccc(-c2cc(-c3cn([C@H]4C[C@H](O)[C@@H](CO)O4)c(=O)[nH]c3=O)on2)cc1,inactive
3,CC(=O)OC[C@H]1O[C@@H](n2cc(-c3cc(-c4ccc(C(C)(C)C)cc4)no3)c(=O)[nH]c2=O)C[C@@H]1OC(C)=O,inactive
